Melting point and Ki data for 51 compounds are collected here from patent US6858640B2, “Tricyclic indole compounds having affinity for serotonin receptor” (Shionogi & Co., Ltd., priority 2000, dated 2005).

In general, melting point refers to the temperature, or range, at which the solid turns liquid. The term Ki denotes the equilibrium dissociation constant of an inhibitor or competing ligand from its target.

Where a name gives a salt, the structure may show the parent alone. Read-outs that look alike come from different tables or passages of the source.

The target in data set [1] is T1, 5HT1A (Rattus norvegicus, UniProt P19327).
T1 construct: prepared from brain of rats or HEK293 cells, which expressed the receptor; from tissue; host or cells: rat brain membranes
T1 sequence (P19327 1-422): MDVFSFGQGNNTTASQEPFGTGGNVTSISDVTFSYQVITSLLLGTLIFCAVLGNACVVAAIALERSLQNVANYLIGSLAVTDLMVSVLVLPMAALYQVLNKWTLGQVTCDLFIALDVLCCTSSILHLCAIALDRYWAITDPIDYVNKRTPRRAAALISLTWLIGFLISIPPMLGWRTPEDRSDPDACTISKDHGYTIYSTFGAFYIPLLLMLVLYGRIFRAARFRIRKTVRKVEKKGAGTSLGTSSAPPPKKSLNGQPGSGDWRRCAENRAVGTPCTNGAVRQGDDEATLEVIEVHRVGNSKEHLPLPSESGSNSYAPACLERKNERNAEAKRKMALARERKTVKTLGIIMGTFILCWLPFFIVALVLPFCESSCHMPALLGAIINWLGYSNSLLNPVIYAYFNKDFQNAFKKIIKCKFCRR
The experiment in a line: radioligand binding to serotonin receptor, cell membrane sample, Ki by Cheng-Prusoff. As for the experimental part: (§1) A mixture of radioactive ligands and some cardinal numbers of test compounds was incubated with a sample of cell membrane, which was prepared from brain of rats or HEK293 cells, which expressed the receptor, under the following conditions. Then, the sample was filtered by suction on a Whatman GF/C. Radioactivity on the filter was encountered by the use of a liquid scintillation counter. 50% Inhibitory concentration values (IC50 values) of each selective binding were calculated for test compounds and the Ki value was obtained by applying an equation of Cheng-Prusoff [Biochem. Pharmacol. 22 (1973) 3099-3108] Ki=IC50/(1+[L]/Kd).

Data set [2] deals with T2, 5HT6 (Homo sapiens, UniProt P50406).
T2 construct: expressed in transfected cells; host or cells: HEK293
T2 sequence (P50406 whole entry, species assumed): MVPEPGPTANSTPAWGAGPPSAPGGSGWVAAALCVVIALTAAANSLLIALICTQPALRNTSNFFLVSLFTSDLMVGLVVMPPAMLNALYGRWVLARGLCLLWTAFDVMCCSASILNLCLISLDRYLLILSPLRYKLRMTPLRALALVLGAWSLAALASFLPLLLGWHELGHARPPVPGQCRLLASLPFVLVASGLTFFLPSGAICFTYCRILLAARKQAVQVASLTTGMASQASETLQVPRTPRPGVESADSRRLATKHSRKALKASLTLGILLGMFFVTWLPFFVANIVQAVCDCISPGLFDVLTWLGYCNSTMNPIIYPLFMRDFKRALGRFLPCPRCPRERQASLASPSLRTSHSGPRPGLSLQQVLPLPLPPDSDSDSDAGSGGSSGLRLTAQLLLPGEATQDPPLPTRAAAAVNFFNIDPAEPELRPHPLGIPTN
The description is as above. As for the experimental part: as §1

Where [3] appears, read: rat hippocampus membranes, 1 nM [3H] 8-OH-DPAT, 25° C. 30 min, read-out: Ki value (nM) ±SE 5-HT1A.
Setting [4] is: rat 5-HT6 (HEK293), 8 nM [3H] 5HT 25° C. 120 min or 4 nM [3H] LSD 37° C. 60 min, read-out: Ki value (nM) ±SE 5-HT6.

For the compound `N[C@@H]1COc2cccc3[nH]cc(c23)C1`, the melting point was in the range of 202 to 203 °C. `c1cc2c3c(c[nH]c3c1)CC1(CO2)OCCO1` gave a melting point of 200 to 202 °C.

`OC1COc2cccc3[nH]cc(c23)C1` (stereo not drawn) displayed a melting point of 169 to 170 °C. `CNC1COc2cccc3[nH]cc(c23)C1` (stereo not drawn) (as salt: oxalate) [Compound 19-2] registered a melting point of 112 to 116 °C. For the compound `CN(C)C1COc2cccc3c2c(cn3S(=O)(=O)c2ccc(Cl)cc2)C1` (stereo not drawn) (as salt: oxalate) [Compound 20-6], the melting point was 114 to 118 °C (dec.). With `CN(C)C1COc2cccc3c2c(cn3S(=O)(=O)c2cccs2)C1` (stereo not drawn) (as salt: oxalate) [Compound 20-9], the melting point is 142 to 144 °C (dec.). For `CN(C)C1COc2cccc3c2c(cn3S(=O)(=O)c2ccc(C(F)(F)F)cc2)C1` (stereo not drawn) (as salt: oxalate) [Compound 20-10], the melting point is 119 to 122 °C (dec.).

With `CN(C)C1COc2cccc3c2c(cn3S(=O)(=O)c2ccc(Br)cc2)C1` (stereo not drawn) (as salt: oxalate) [Compound 20-11], the melting point was 147 to 150 °C (dec.). With `CN(C)C1COc2cccc3c2c(cn3S(=O)(=O)c2cccc(Br)c2)C1` (stereo not drawn) (as salt: oxalate) [Compound 20-12], the melting point is 168 to 171 °C (dec.). Still for that read-out and setting: the value for `CN(C)C1COc2cccc3c2c(cn3S(=O)(=O)c2ccccc2Br)C1` (stereo not drawn) (as salt: oxalate) [Compound 20-13] was 173 to 176 °C (dec.); that for `COc1ccc(S(=O)(=O)n2cc3c4c(cccc42)OCC(N(C)C)C3)cc1` (stereo not drawn) (as salt: oxalate) [Compound 20-14] was 140 to 142 °C (dec.). For `COc1ccc(S(=O)(=O)n2cc3c4c(cccc42)OCC(N(C)C)C3)cc1OC` (stereo not drawn) (as salt: oxalate) [Compound 20-15], the melting point is 123 to 126 °C (dec.). Same read-out and setting: the value for `CN(C)C1COc2cccc3c2c(cn3S(=O)(=O)/C=C/c2ccccc2)C1` (stereo not drawn) (as salt: oxalate) [Compound 20-16] was 169 to 171 °C (dec.); that for `CN(C)C1COc2cccc3c2c(cn3S(=O)(=O)c2cc(Cl)ccc2Cl)C1` (stereo not drawn) (as salt: oxalate) [Compound 20-17] was 161 to 163 °C (dec.). In the case of `CN(C)C1COc2cccc3c2c(cn3S(=O)(=O)c2ccc(F)cc2)C1` (stereo not drawn) (as salt: oxalate) [Compound 20-19], the melting point is 143 to 144 °C (dec.). Turning to `CN(C)C1COc2cccc3c2c(cn3S(=O)(=O)c2cc(F)c(Br)cc2F)C1` (stereo not drawn) (as salt: oxalate) [Compound 20-20], the melting point was 128 to 131 °C (dec.). With `CN(C)C1COc2cccc3c2c(cn3S(=O)(=O)c2ccc(Cl)s2)C1` (stereo not drawn) (as salt: oxalate) [Compound 20-21], the melting point was 154 to 156 °C (dec.). In the case of `CN(C)C1COc2cccc3c2c(cn3S(=O)(=O)c2ccc(F)cc2F)C1` (stereo not drawn) (as salt: oxalate) [Compound 20-22], the melting point was 163 to 164 °C (dec.). Same read-out and setting: the value for `COc1ccc(OC)c(S(=O)(=O)n2cc3c4c(cccc42)OCC(N(C)C)C3)c1` (stereo not drawn) (as salt: oxalate) [Compound 20-23] was 147 to 150 °C (dec.); that for `CN(C)C1COc2cccc3c2c(cn3S(=O)(=O)c2ccc(-c3ccon3)s2)C1` (stereo not drawn) (as salt: oxalate) [Compound 20-25] was 113 to 115 °C (dec.); that for `CNC1COc2cccc3c2c(cn3S(=O)(=O)c2ccccc2)C1` (stereo not drawn) (as salt: oxalate) [Compound 36-2] was 208 to 213 °C (dec.). Compound `NC1COc2cccc3[nH]cc(c23)C1` (stereo not drawn) [Compound 8-1, 2,7,8,9-Tetrahydro-6-oxa-2-azabenzo[c,d]azulen-8-ylamine] gave a melting point of 172 to 173 °C. Moreover, the Ki in data set [1] (setting [3]) was determined as 36 nM. As to `CN(C)C1CC(=O)c2cccc3[nH]cc(c23)C1` (stereo not drawn) [Compound 19-1, Dimethyl-(2,7,8,9-tetrahydro-6-oxo-2-azabenzo[cd]azulen-8-yl)amine], the Ki in data set [1] (setting [3]) came to 81 nM.

The compound `CCCN(CCC)C1COc2cccc3[nH]cc(c23)C1` (stereo not drawn) [Compound 19-5] came in with a melting point of 60 to 61 °C. The compound also showed a Ki in data set [1] of 10 nM. `C=CCNC1COc2cccc3[nH]cc(c23)C1` (stereo not drawn) [Compound 19-7] gave a melting point of 112 to 113 °C. The affinity in data set [1] corresponds to a Ki of 19 nM. Consider `c1cc2c3c(c[nH]c3c1)CC(N1CCCC1)CO2` (stereo not drawn) [Compound 19-10], for which the melting point lay within 137 to 139 °C. Besides, in data set [1], the affinity, expressed as Ki, was 2.5 nM.

As to `c1cc2c3c(c[nH]c3c1)CC(NC1CC1)CO2` (stereo not drawn) [Compound 19-19], the melting point was 130 to 131 °C. For the same compound, in data set [1], the affinity, expressed as Ki, was 3.8 nM.

On to `CN(C)C1CC(=O)c2cccc3c2c(cn3S(=O)(=O)c2ccccc2)C1` (stereo not drawn) [Compound 20-1, (2-Benzenesulfonyl-2,7,8,9-tetrahydro-6-oxo-2-azabenzo[cd]azulen-8-yl)dimethylamine oxalate], for which, in data set [2], the Ki turned out to be 1.7 nM. As for `CN(C)C1COc2cccc3c2c(cn3S(=O)(=O)c2cccc3ccccc23)C1` (stereo not drawn) [Compound 20-5], the melting point fell in the range of 148 to 149 °C. Also, the inhibition constant (Ki) in data set [2] amounted to 0.49 nM. For the compound `CN(C)C1COc2cccc3c2c(cn3S(=O)(=O)c2ccc(Cl)cc2)C1` (stereo not drawn) [Compound 20-6], the Ki in data set [2] (setting [4]) was 2.7 nM. Turning to `CN(C)C1COc2cccc3c2c(cn3S(=O)(=O)c2ccc(Br)cc2)C1` (stereo not drawn) [Compound 20-11], in data set [2], the Ki stood at 5.7 nM.

Consider `CN(C)C1COc2cccc3c2c(cn3S(=O)(=O)c2cccc(Br)c2)C1` (stereo not drawn) [Compound 20-12], for which, in data set [2], the affinity, expressed as Ki, was 2.7 nM. In the case of `CN(C)C1COc2cccc3c2c(cn3S(=O)(=O)c2ccccc2Br)C1` (stereo not drawn) [Compound 20-13], the Ki in data set [2] stood at 3.9 nM. As to `COc1ccc(S(=O)(=O)n2cc3c4c(cccc42)OCC(N(C)C)C3)cc1` (stereo not drawn) [Compound 20-14], the affinity in data set [2] corresponds to a Ki of 22 nM. Turning to `COc1ccc(S(=O)(=O)n2cc3c4c(cccc42)OCC(N(C)C)C3)cc1OC` (stereo not drawn) [Compound 20-15], the Ki in data set [2] (setting [4]) was determined as 29 nM.

Take `CN(C)C1COc2cccc3c2c(cn3S(=O)(=O)/C=C/c2ccccc2)C1` (stereo not drawn) [Compound 20-16]: in data set [2], affinity was put at a Ki of 22 nM.

In turn, `CN(C)C1COc2cccc3c2c(cn3S(=O)(=O)c2cc(Cl)ccc2Cl)C1` (stereo not drawn) [Compound 20-17] yielded a Ki in data set [2] of 29 nM.

`CN(C)C1COc2c(Br)ccc3c2c(cn3S(=O)(=O)c2ccccc2)C1` (stereo not drawn) [Compound 20-18] registered a melting point of 89 to 90 °C. In data set [2], the Ki was 22 nM.

In the case of `CN(C)C1COc2cccc3c2c(cn3S(=O)(=O)c2ccc(F)cc2)C1` (stereo not drawn) [Compound 20-19], the Ki in data set [2] came to 12 nM. Regarding `CN(C)C1COc2cccc3c2c(cn3S(=O)(=O)c2cc(F)c(Br)cc2F)C1` (stereo not drawn) [Compound 20-20], in data set [2] (setting [4]), the Ki was 11 nM.

Take `CN(C)C1COc2cccc3c2c(cn3S(=O)(=O)c2ccc(Cl)s2)C1` (stereo not drawn) [Compound 20-21]: the Ki in data set [2] (setting [4]) was 2.7 nM.

For `CN(C)C1COc2cccc3c2c(cn3S(=O)(=O)c2ccc(F)cc2F)C1` (stereo not drawn) [Compound 20-22], the Ki in data set [2] (setting [4]) came to 26 nM. The same measure, in the same setting: as for `COc1ccc(OC)c(S(=O)(=O)n2cc3c4c(cccc42)OCC(N(C)C)C3)c1` (stereo not drawn) [Compound 20-23], the figure is 9.9 nM. `COc1cccc(S(=O)(=O)n2cc3c4c(cccc42)OCC(N(C)C)C3)c1` (stereo not drawn) [Compound 20-24]: the melting point was in the range of 103 to 104 °C. This compound gave a Ki in data set [2] of 3.2 nM. As to `CN(C)C1COc2cccc3c2c(cn3S(=O)(=O)c2ccc(-c3ccon3)s2)C1` (stereo not drawn) [Compound 20-25], the Ki in data set [2] (setting [4]) worked out at 36 nM.

As for `CN(C)C1COc2cccc3[nH]c(Br)c(c23)C1` (stereo not drawn) [Compound 21, (1-Bromo-2,7,8,9-tetrahydro-6-oxa-2-azabenzo[cd]azulen-8-yl)dimethylamine], the melting point is 170 to 172 °C. Also, in data set [1] (setting [3]), the Ki worked out at 14 nM. With `CNC1COc2cccc3c2c(cn3S(=O)(=O)c2ccccc2)C1` (stereo not drawn) [Compound 36-2], affinity in data set [2] was put at a Ki of 8.5 nM. Turning to `CCc1ccc2[nH]cc3c2c1OCC(N(C)C)C3` (stereo not drawn) [Compound 41, (5-Ethyl-2,7,8,9-tetrahydro-6-oxa-2-azabenzo[cd]azulen-8-yl)dimethylamine], the Ki in data set [1] (setting [3]) worked out at 57 nM.

Turning to `CN(C)C1COc2c(C=O)ccc3[nH]cc(c23)C1` (stereo not drawn) [Compound 46-1, 8-Dimethylamino-2,7,8,9-tetrahydro-6-oxa-2-azabenzo[cd]-azulene-5-carbaldehyde], in data set [2], the Ki was 28 nM.

For `CN(C)C1COc2c(C=NO)ccc3[nH]cc(c23)C1` (stereo not drawn) [Compound 47, 8-Dimethylamino-2,7,8,9-tetrahydro-6-oxa-2-azabenzo[cd]-azulene-5-carbaldehyde Oxime], the affinity in data set [2], expressed as Ki, was 78 nM. The compound `CN(C)C1COc2c(C#N)ccc3[nH]cc(c23)C1` (stereo not drawn) [Compound 48, 8-Dimethylamino-2,7,8,9-tetrahydro-6-oxa-2-azabenzo[cd]-azulene-5-carbonitrile] yielded an inhibitory constant (Ki) in data set [2] of 1 nM.
